One experiment relates to Ucp1. The experiment in a line: UCP1 luciferase assay (Ucp1 up-regulation in differentiated inguinal adipocytes of Ucp1-luciferase knock-in mice). Type of experiment: cell-based. The following applies: Mus musculus, Adipocyte, 48 h; at 1 μM; 2 days treatment; luciferase activity; read-out: Ucp1 activation fold/corresponding concentration. As for the experimental part:
TEST EXAMPLE 1 UCP1 Luciferase Assay
Evaluating Compounds that Induce Ucp1 Up-Regulation
Ucp1-luciferase knock-in mice will be housed in cages and fed on standard chow diets (the detailed procedures please see reference 14). The 8-week-old mice will be killed by the cervical dislocation and put into 75% alcohol for 5 minutes. The inguinal adipose tissue will be dissected out and transferred to the three 10-cm petri dishes and washed with PBS for three times. The adipose tissue will be dissected and minced on a 10-cm petri dish for several minutes and then pipetted into 20 ml 0.1% collagenase solution in 50 ml conical tubes and digested at 37° C. for 1 hour. Next, 20 ml culture medium will be added to terminate the digestion and centrifuged for 10 minutes at 1000 rpm respectively. The supernatants will be removed and the pellets re-suspended in 10 mL culture medium and plated into 10-cm plates. The cells will be left to adhere to the plates overnight and the culture medium will be changed every other day. The confluent cells will be trypsinized, counted and plated to 24-well plate (5×10^4 cells/well). The cells will be washed and re-fed the next day (as day −2). Two days later (day 0), the cells will usually become confluent and be induced to differentiate with MDIR medium. On day 2, the medium will be changed to IR medium and re-fed every 2 days. Complete differentiation is usually achieved by day 10. On day 10, the medium will be changed to the culture medium of 10% FBS/DMEM with indicated drugs along with the positive and negative controls for 2 days. The media will be removed and the cells washed with 1 ml PBS per well three times. Then 100 μl lysis buffer will be used to lyse the cells at 4° C. for 1 hour. 30 μl culture medium, 30 μl cell lysates and 60 μl Steady-Glo® Reagent were added to a well of 96-well-plate and the luminescence will be measured using a luminometer. The protein concentration will be determined using 20 μl cell lysates and specific activity of luciferase will be tabulated and data analyzed.
For `COc1ccc(-c2nc(Nc3ccccn3)sc2C)cc1OC` [Compound 19, 4-(3,4-dimethoxyphenyl)-5-methyl-N-(pyridin-2-yl)thiazol-2-amine], the fold induction at 1 µM came out at 1.6.

Turning to `CC(C)Oc1ccc(-c2csc(Nc3ccccn3)n2)cc1` [Compound 42, 4-(4-isopropoxyphenyl)-N-(pyridin-2-yl)thiazol-2-amine], the fold induction at 1 µM is 2.

As to `COc1ccc(-c2csc(Nc3ncccc3C)n2)cc1OC` [Compound 12, 4-(3,4-dimethoxyphenyl)-N-(3-methylpyridin-2-yl)thiazol-2-amine], the fold induction at 1 µM is 1.2.

On to `c1ccc(Nc2nc(-c3ccccn3)cs2)nc1` [Compound 27, N,4-di(pyridin-2-yl)thiazol-2-amine], for which the fold induction at 1 µM amounted to 3.3.

Take `CCCCOc1ccc(-c2csc(Nc3ccccn3)n2)cc1` [Compound 43, 4-(4-butoxyphenyl)-N-(pyridin-2-yl)thiazol-2-amine]: the fold induction at 1 µM is 2.8.

Consider `N#Cc1ccc(-c2csc(Nc3ccccn3)n2)cc1` [Compound 49, 4-(2-(pyridin-2-ylamino)thiazol-4-yl)benzonitrile], for which the fold induction at 1 µM amounted to 3.9.

As to `O=[N+]([O-])c1ccc(-c2csc(Nc3ccccn3)n2)cc1` [Compound 34, 4-(4-nitrophenyl)-N-(pyridin-2-yl)thiazol-2-amine], the fold induction at 1 µM was determined as 3.8.

As to `CC(=O)Nc1ccc(-c2csc(Nc3ccccn3)n2)cc1` [Compound 36, N-(4-(2-(pyridin-2-ylamino)thiazol-4-yl)phenyl)acetamide], the fold induction at 1 µM is 3.8.

For the molecule `O=C(c1ccc(-c2csc(Nc3ccccn3)n2)cc1)N1CCOCC1` [Compound 52, morpholino(4-(2-(pyridin-2-ylamino)thiazol-4-yl)phenyl)methanone], the fold induction at 1 µM stood at 5.1.

As to `COc1ccc(-c2csc(Nc3cc(C)ccn3)n2)cc1OC` [Compound 2, 4-(3,4-dimethoxyphenyl)-N-(4-methylpyridin-2-yl)thiazol-2-amine], the fold induction at 1 µM was found to be 1.1.

On to `CNc1nc(-c2ccc(OC)c(OC)c2)cs1` [Compound 31, 4-(3,4-dimethoxyphenyl)-N-methylthiazol-2-amine], for which the fold induction at 1 µM was 1.1.

`c1ccc(Nc2nc(-c3ccc4c(c3)OCO4)cs2)nc1` [Compound 82, 4-(benzo[d][1,3]dioxol-5-yl)-N-(pyridin-2-yl)thiazol-2-amine]: the fold induction at 1 µM came out at 2.4.

As for `c1ccc(Nc2nc(-c3cccnc3)cs2)nc1` [Compound 9, N-(pyridin-2-yl)-4-(pyridin-3-yl)thiazol-2-amine], the fold induction at 1 µM stood at 3.6.

In the case of `Fc1ccc(-c2csc(Nc3ccccn3)n2)cc1` [Compound 22, 4-(4-fluorophenyl)-N-(pyridin-2-yl)thiazol-2-amine], the fold induction at 1 µM worked out at 3.9.

In the case of `COc1cccc(-c2csc(Nc3ccccn3)n2)c1` [Compound 3, 4-(3-methoxyphenyl)-N-(pyridin-2-yl)thiazol-2-amine], the fold induction at 1 µM came to 2.8.

On to `COc1cc(-c2csc(Nc3ccccn3)n2)cc(OC)c1OC` [Compound 17, N-(pyridin-2-yl)-4-(3,4,5-trimethoxyphenyl)thiazol-2-amine], for which the fold induction at 1 µM is 1.9.

Still in this experiment, the particulars now being: Mus musculus, Adipocyte, 48 h; at 3 μM; 2 days treatment; luciferase activity; read-out: Ucp1 activation fold/corresponding concentration.
With `COc1ccc(-c2csc(Nc3cccnc3)n2)cc1OC` [Compound 33, 4-(3,4-dimethoxyphenyl)-N-(pyridin-3-yl)thiazol-2-amine], the fold induction at 3 µM came to 2.

For the molecule `Cc1ccc(-c2csc(Nc3ccccn3)n2)cc1` [Compound 21, N-(pyridin-2-yl)-4-p-tolylthiazol-2-amine], the fold induction at 3 µM was found to be 2.9.

For the molecule `O=C(NO)c1ccc(-c2csc(Nc3ccccn3)n2)cc1` [Compound 74, N-hydroxy-4-(2-(pyridin-2-ylamino)thiazol-4-yl)benzamide], the fold induction at 3 µM came to 3.

Regarding `Clc1cccc(-c2csc(Nc3ccccn3)n2)c1Cl` [Compound 75, 4-(2,3-dichlorophenyl)-N-(pyridin-2-yl)thiazol-2-amine], the fold induction at 3 µM is 1.1.

As for `N#Cc1cccc(-c2csc(Nc3ccccn3)n2)c1` [Compound 5, 3-(2-(pyridin-2-ylamino)thiazol-4-yl)benzonitrile], the fold induction at 3 µM stood at 5.4.

Turning to `c1ccc(Nc2nc(-c3ccc(-c4ccsc4)cc3)cs2)nc1` [Compound 76, N-(pyridin-2-yl)-4-(4-(thiophen-3-yl)phenyl)thiazol-2-amine], the fold induction at 3 µM turned out to be 1.8.

Regarding `O=C(Nc1ccccc1)c1ccc(-c2csc(Nc3ccccn3)n2)cc1` [Compound 58, N-phenyl-4-(2-(pyridin-2-ylamino)thiazol-4-yl)benzamide], the fold induction at 3 µM is 1.4.

As to `c1ccc(CNc2ccc(-c3csc(Nc4ccccn4)n3)cc2)cc1` [Compound 55, 4-(4-(benzylamino)phenyl)-N-(pyridin-2-yl)thiazol-2-amine], the fold induction at 3 µM stood at 2.

With `O=C(Nc1ccccn1)c1ccc(-c2csc(Nc3ccccn3)n2)cc1` [Compound 69, N-(pyridin-2-yl)-4-(2-(pyridin-2-ylamino)thiazol-4-yl)benzamide], the fold induction at 3 µM is 4.6.

Take `Cc1ccc(-c2csc(Nc3ccccn3)n2)cc1C` [Compound 80, 4-(3,4-dimethylphenyl)-N-(pyridin-2-yl)thiazol-2-amine]: the fold induction at 3 µM is 1.5.

`COc1ccccc1-c1csc(Nc2ccccn2)n1` [Compound 24, 4-(2-methoxyphenyl)-N-(pyridin-2-yl)thiazol-2-amine]: the fold induction at 3 µM was 2.7.

Consider `FC(F)(F)Oc1ccc(-c2csc(Nc3ccccn3)n2)cc1` [Compound 23, N-(pyridin-2-yl)-4-(4-(trifluoromethoxy)phenyl)thiazol-2-amine], for which the fold induction at 3 µM amounted to 4.

With `O=C(COc1ccc(-c2csc(Nc3ccccn3)n2)cc1)N1CCOCC1` [Compound 46, 1-morpholino-2-(4-(2-(pyridin-2-ylamino)thiazol-4-yl)phenoxy)ethanone], the fold induction at 3 µM was found to be 1.7.

Consider `CCC(=O)Nc1ccc(-c2csc(Nc3ccccn3)n2)cc1` [Compound 38, N-(4-(2-(pyridin-2-ylamino)thiazol-4-yl)phenyl)propionamide], for which the fold induction at 3 µM turned out to be 5.

Take `Brc1ccc(-c2csc(Nc3ccccn3)n2)cc1` [Compound 40, 4-(4-bromophenyl)-N-(pyridin-2-yl)thiazol-2-amine]: the fold induction at 3 µM came to 3.

For `COCCOCCNC(=O)c1ccc(-c2csc(Nc3ccccn3)n2)cc1` [Compound 62, N-(2-(2-methoxyethoxy)ethyl)-4-(2-(pyridin-2-ylamino)thiazol-4-yl)benzamide], the fold induction at 3 µM came out at 2.2.

With `CN(C)c1ccc(-c2csc(Nc3ccccn3)n2)cc1` [Compound 16, 4-(4-(dimethylamino)phenyl)-N-(pyridin-2-yl)thiazol-2-amine], the fold induction at 3 µM came out at 5.1.

Regarding `COc1ccc(-c2csc(Nc3cccc(C)n3)n2)cc1OC` [Compound 10, 4-(3,4-dimethoxyphenyl)-N-(6-methylpyridin-2-yl)thiazol-2-amine], the fold induction at 3 µM amounted to 3.8.

Regarding `CCN(CC)C(=O)c1ccc(-c2csc(Nc3ccccn3)n2)cc1` [Compound 66, N,N-diethyl-4-(2-(pyridin-2-ylamino)thiazol-4-yl)benzamide], the fold induction at 3 µM came to 1.

In the case of `O=C(Nc1ccc(Cl)cc1)c1csc(Nc2ccccn2)n1` [Compound 68, N-(4-chlorophenyl)-2-(pyridin-2-ylamino)thiazole-4-carboxamide], the fold induction at 3 µM was 1.3.

Regarding `CC(=O)OCc1ccc(-c2csc(Nc3ccccn3)n2)cc1` [Compound 60, 4-(2-(pyridin-2-ylamino)thiazol-4-yl)benzyl acetate], the fold induction at 3 µM amounted to 2.6.

For the molecule `Brc1cc(N2CCOCC2)ccc1-c1csc(Nc2ccccn2)n1` [Compound 28, 4-(2-bromo-4-morpholinophenyl)-N-(pyridin-2-yl)thiazol-2-amine], the fold induction at 3 µM came out at 3.2.

As for `Cc1cc(-c2csc(Nc3ccccn3)n2)ccc1N` [Compound 83, 4-(4-amino-3-methylphenyl)-N-(pyridin-2-yl)thiazol-2-amine], the fold induction at 3 µM stood at 6.

For `c1ccc(Nc2nc(-c3ccc(-c4ccncc4)cc3)cs2)nc1` [Compound 79, N-(pyridin-2-yl)-4-(4-(pyridin-4-yl)phenyl)thiazol-2-amine], the fold induction at 3 µM was found to be 1.8.

`c1ccc(-c2ccc(-c3csc(Nc4ccccn4)n3)cc2)cc1` [Compound 50, 4-(biphenyl-4-yl)-N-(pyridin-2-yl)thiazol-2-amine]: the fold induction at 3 µM is 2.4.

For the origin of these results see patent US10532987B2, “Compounds and methods for inducing browning of white adipose tissue” (GUANGZHOU INSTITUTES OF BIOMEDICINE AND HEALTH, CHINESE …, priority 2015, dated 2020).
